This is an account of results in ChEMBL document CHEMBL1158802, “Bioactive constituents of the leaves of Phyllanthus polyphyllus var. siamensis” (J Nat Prod, 2005).

≈ marks a conversion by molar mass, not a printed value. Calls of active or inactive are those of the source. The calls are words filed in the database; no cut-off is given here. A value given as a limit tells only on which side of the number the result lay.

One experiment deals with NCI-H187. The experiment can be described thus: Cytotoxicity against human NCI-H187 cells by colorimetric method. Format: functional, cell-based.
In another experiment the test system is KB. Briefly: Cytotoxicity against human KB cells by colorimetric method. The format is functional, cell-based.
A short description of experiment [1]: Cytotoxicity against human BC cells by colorimetric method. The format is functional, cell-based.
In the next experiment the test system is Vero. The experiment can be described thus: Cytotoxicity against african green monkey Vero cells by colorimetric method. To be noted: Chlorocebus sabaeus. Format: cell-based.

What is called IC50 is the concentration needed to halve the response being measured. Take `COc1cc(C[C@@H](CO)[C@H](CO)Cc2ccc(O)c(OC)c2)ccc1O` [(+)-SECOISOLARICIRESINOL]: the IC50 (in the experiment on NCI-H187; with KB; in experiment [1]) was > 5 µg/mL each time.
Regarding `CC1(C)CC[C@]2(C(=O)O)CC[C@]3(C)C(=CC[C@@H]4[C@@]5(C)CC[C@H](O[C@@H]6OC[C@H](O)[C@H](O)[C@H]6O)C(C)(C)[C@@H]5CC[C@]43C)[C@@H]2C1`, the IC50 in the experiment with NCI-H187 turned out to be 3.2 µg/mL (≈ 5.43 µM); in experiment [1] it was 1.7 µg/mL (≈ 2.89 µM); with Vero, 2.8 µg/mL (≈ 4.76 µM). Moreover, the outcome in the experiment on KB was inactive.
With `CC(=O)OC[C@@]1(C)[C@@H]2CC[C@]3(C)[C@H](CC=C4[C@@H]5CC(C)(C)CC[C@]5(C(=O)O)CC[C@]43C)[C@@]2(C)CC[C@@H]1O[C@@H]1OC[C@H](OC(C)=O)[C@H](OC(C)=O)[C@H]1OC(C)=O`, the IC50 is 2.2 µg/mL (≈ 2.85 µM) in the experiment with NCI-H187, 3.7 µg/mL (≈ 4.79 µM) in the experiment with KB and 3.6 µg/mL (≈ 4.66 µM) in experiment [1].
For `CC1(C)CC[C@]2(C(=O)O)CC[C@]3(C)C(=CC[C@@H]4[C@@]5(C)CC[C@H](O)[C@@](C)(CO)[C@@H]5CC[C@]43C)[C@@H]2C1` [HEDERAGENIN], in that order: > 5 µg/mL, > 5 µg/mL and > 5 µg/mL.
In the case of `CC1(C)CC[C@]2(C(=O)O)CC[C@]3(C)C(=CC[C@@H]4[C@@]5(C)CC[C@H](O[C@@H]6OC[C@H](O)[C@H](O)[C@H]6O)[C@@](C)(CO)[C@@H]5CC[C@]43C)[C@@H]2C1`, the outcome with NCI-H187 and in the experiment with KB was inactive.
For the compound `CC(=O)O[C@H]1CO[C@@H](O[C@H]2CC[C@@]3(C)[C@@H](CC[C@]4(C)[C@@H]3CC=C3[C@@H]5CC(C)(C)CC[C@]5(C(=O)O)CC[C@]34C)[C@]2(C)CO)[C@H](O)[C@H]1O`, the result in the experiment on NCI-H187 and in the experiment on KB was inactive. The IC50 in experiment [1] was 3.6 µg/mL (≈ 5.57 µM); in the experiment on Vero, 10.7 µg/mL (≈ 16.5 µM).
Turning to `CC(=O)O[C@@H]1[C@@H](O)[C@H](O[C@H]2CC[C@@]3(C)[C@@H](CC[C@]4(C)[C@@H]3CC=C3[C@@H]5CC(C)(C)CC[C@]5(C(=O)O)CC[C@]34C)[C@]2(C)CO)OC[C@@H]1O`, the result in the experiment on NCI-H187 and in the experiment on KB was inactive.
Regarding `CC(=O)O[C@H]1[C@H](O[C@H]2CC[C@@]3(C)[C@@H](CC[C@]4(C)[C@@H]3CC=C3[C@@H]5CC(C)(C)CC[C@]5(C(=O)O)CC[C@]34C)[C@]2(C)CO)OC[C@H](O)[C@@H]1O`, the result in the experiment on NCI-H187 was inactive.
For `OC[C@H](Cc1ccc2c(c1)OCO2)[C@H](CO)Cc1ccc2c(c1)OCO2` [DIHYDROCUBEBIN], the IC50 (with NCI-H187; with KB; in experiment [1]) was > 5 µg/mL each time.
With `O=C1C=C2C=C[C@@H](O)C[C@H]2O1` [MENISDAURILIDE], the IC50 (with NCI-H187; in the experiment with KB; in experiment [1]) was > 5 µg/mL in each case.
For `Cc1c2ccncc2c(C)c2c1[nH]c1ccccc12` [ELLIPTECINE], the IC50 turned out to be 0.32 µg/mL (≈ 1.3 µM) in the experiment on NCI-H187, 0.26 µg/mL (≈ 1.06 µM) in the experiment with KB and 0.36 µg/mL (≈ 1.46 µM) in experiment [1].
Take `CC(=O)O[C@@H]1[C@@H](OC(C)=O)[C@H](O[C@H]2CC[C@]3(C)[C@H]4CC=C5[C@@H]6CC(C)(C)CC[C@]6(C(=O)O)CC[C@@]5(C)[C@]4(C)CC[C@H]3C2(C)C)OC[C@@H]1OC(C)=O`: the outcome in the experiment on NCI-H187 and in the experiment on KB was inactive. The results for the IC50 (in experiment [1]; in the experiment with Vero) were 3.3 µg/mL (≈ 4.62 µM) and 3.2 µg/mL (≈ 4.48 µM), respectively.
